Values joined by “and” are separate entries in the source; they are usually repeats but may differ in a detail not shown here. Equal entries are not always repeated. Inconclusive results and toxic doses are left out.
System: BDF1 mice, B16 melanoma ip, median survival T/C
Experiment: NCI In Vivo Anticancer Drug Screen. Data for tumor model B16 Melanoma (intraperitoneal) in B6D2F1 (BDF1) mice
Settings: endpoint: median survival time, higher = longer survival
Summary of the method: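 Values are ratios of treated (T) to vehicle-control (C) measurements of survival or tumor size in tumor-bearing mice.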

[1] = dose: 100.0 mg/kg/injection, schedule: Q04DX003 (ip), vehicle: Klucel (hydroxypropylcellulose) (HPC)
[2] = dose: 200.0 mg/kg/injection, schedule: Q04DX003 (ip), vehicle: Klucel (hydroxypropylcellulose) (HPC)
[3] = dose: 400.0 mg/kg/injection, schedule: Q04DX003 (ip), vehicle: Klucel (hydroxypropylcellulose) (HPC)
[4] = dose: 100.0 mg/kg/injection, schedule: Q01DX009 (ip), vehicle: saline with Tween-80
[5] = dose: 200.0 mg/kg/injection, schedule: Q01DX009 (ip), vehicle: saline with Tween-80
[6] = dose: 400.0 mg/kg/injection, schedule: Q01DX009 (ip), vehicle: saline with Tween-80

CC(CN1CC(=O)NC(=O)C1)N1CC(=O)NC(=O)C1 (stereo not given)
T/C (dose: 3.75 mg/kg/injection, schedule: Q01DX009 (ip), vehicle: alkali diluted with saline): 99 % of control
T/C (dose: 3.75 mg/kg/injection, schedule: Q01DX009 (ip), vehicle: saline sonified): 97 % of control
T/C (dose: 3.75 mg/kg/injection, schedule: Q01DX009 (ip), vehicle: saline): 102 % of control
T/C (dose: 3.75 mg/kg/injection, schedule: Q04DX004 (ip), vehicle: saline): 100 % of control
T/C (dose: 4.0 mg/kg/injection, schedule: Q01DX009 (ip), vehicle: saline with Tween-80): 114 % of control
T/C (dose: 4.0 mg/kg/injection, schedule: Q01DX009 (ip), vehicle: saline): 115 % of control
T/C (dose: 7.5 mg/kg/injection, schedule: Q01DX009 (ip), vehicle: alkali diluted with saline): 105 % of control
T/C (dose: 7.5 mg/kg/injection, schedule: Q01DX009 (ip), vehicle: saline sonified): 100 % of control
T/C (dose: 7.5 mg/kg/injection, schedule: Q01DX009 (ip), vehicle: saline): 104 % of control
T/C (dose: 7.5 mg/kg/injection, schedule: Q04DX004 (ip), vehicle: saline): 90 % of control
T/C (dose: 8.0 mg/kg/injection, schedule: Q01DX009 (ip), vehicle: saline with Tween-80): 105 % of control and 112 % of control and 118 % of control
T/C (dose: 8.0 mg/kg/injection, schedule: Q01DX009 (ip), vehicle: saline): 123 % of control
T/C (dose: 15.0 mg/kg/injection, schedule: Q01DX009 (ip), vehicle: alkali diluted with saline): 110 % of control
T/C (dose: 15.0 mg/kg/injection, schedule: Q01DX009 (ip), vehicle: saline sonified): 109 % of control
T/C (dose: 15.0 mg/kg/injection, schedule: Q01DX009 (ip), vehicle: saline with Tween-80): 110 % of control
T/C (dose: 15.0 mg/kg/injection, schedule: Q01DX009 (ip), vehicle: saline): 114 % of control
T/C (dose: 15.0 mg/kg/injection, schedule: Q04DX004 (ip), vehicle: saline): 88 % of control
T/C (dose: 16.0 mg/kg/injection, schedule: Q01DX009 (ip), vehicle: saline with Tween-80): 121 % of control and 123 % of control
T/C (dose: 25.0 mg/kg/injection, schedule: Q04DX003 (ip), vehicle: Klucel (hydroxypropylcellulose) (HPC)): 94 % of control and 97 % of control
T/C (dose: 30.0 mg/kg/injection, schedule: Q01DX009 (ip), vehicle: alkali diluted with saline): 119 % of control
T/C (dose: 30.0 mg/kg/injection, schedule: Q01DX009 (ip), vehicle: saline sonified): 119 % of control
T/C (dose: 30.0 mg/kg/injection, schedule: Q01DX009 (ip), vehicle: saline with Tween-80): 113 % of control
T/C (dose: 30.0 mg/kg/injection, schedule: Q01DX009 (ip), vehicle: saline): 121 % of control
T/C (dose: 30.0 mg/kg/injection, schedule: Q01DX009 (oral), vehicle: saline): 95 % of control
T/C (dose: 30.0 mg/kg/injection, schedule: Q04DX004 (ip), vehicle: saline): 90 % of control
T/C (dose: 32.0 mg/kg/injection, schedule: Q01DX009 (ip), vehicle: Klucel (hydroxypropylcellulose) (HPC)): 115 % of control
T/C (dose: 32.0 mg/kg/injection, schedule: Q01DX009 (ip), vehicle: saline with Tween-80): 122 % of control
T/C (dose: 32.0 mg/kg/injection, schedule: Q04DX003 (ip), vehicle: saline with Tween-80): 109 % of control and 110 % of control
T/C (dose: 50.0 mg/kg/injection, schedule: Q04DX003 (ip), vehicle: Klucel (hydroxypropylcellulose) (HPC)): 108 % of control and 110 % of control
T/C (dose: 60.0 mg/kg/injection, schedule: Q01DX009 (ip), vehicle: saline with Tween-80): 118 % of control
T/C (dose: 60.0 mg/kg/injection, schedule: Q04DX004 (ip), vehicle: saline): 111 % of control
T/C (dose: 64.0 mg/kg/injection, schedule: Q01DX009 (ip), vehicle: Klucel (hydroxypropylcellulose) (HPC)): 120 % of control
T/C (dose: 64.0 mg/kg/injection, schedule: Q04DX003 (ip), vehicle: saline with Tween-80): 108 % of control and 115 % of control
T/C (dose: 64.0 mg/kg/injection, schedule: Q04DX003 (ip), vehicle: saline): 115 % of control
T/C [1]: 108 % of control and 112 % of control
T/C (dose: 120.0 mg/kg/injection, schedule: Q01DX009 (ip), vehicle: saline with Tween-80): 116 % of control
T/C (dose: 128.0 mg/kg/injection, schedule: Q01DX009 (ip), vehicle: Klucel (hydroxypropylcellulose) (HPC)): 120 % of control
T/C (dose: 128.0 mg/kg/injection, schedule: Q04DX003 (ip), vehicle: saline with Tween-80): 121 % of control
T/C (dose: 128.0 mg/kg/injection, schedule: Q04DX003 (ip), vehicle: saline): 121 % of control
T/C [2]: 112 % of control
T/C [3]: 108 % of control
T/C (dose: 800.0 mg/kg/injection, schedule: Q04DX003 (ip), vehicle: Klucel (hydroxypropylcellulose) (HPC)): 112 % of control

C1=C(c2ccccc2)CCCC1
T/C [1]: 90 % of control
T/C [2]: 93 % of control
T/C [3]: 103 % of control

NC(=NCc1ccccc1)c1ccc(N=C(N)c2ccc(C(N)=Nc3ccc(C(N)=NCc4ccccc4)cc3)cc2)cc1
T/C (dose: 2.5 mg/kg/injection, schedule: Q01DX009 (ip), vehicle: saline): 97 % of control
T/C (dose: 5.0 mg/kg/injection, schedule: Q01DX009 (ip), vehicle: saline): 96 % of control
T/C (dose: 10.0 mg/kg/injection, schedule: Q01DX009 (ip), vehicle: saline): 92 % of control
T/C (dose: 20.0 mg/kg/injection, schedule: Q01DX009 (ip), vehicle: saline): 96 % of control

ClC1=C(Cl)C(Cl)(Cl)C(Cl)(Cl)C1(Cl)Cl
T/C (dose: 100.0 mg/kg/injection, schedule: Q01DX009 (ip), vehicle: Klucel (hydroxypropylcellulose) (HPC)): 103 % of control

CCCNCCNc1ccc(NCCNCCC)c2c1C(=O)c1ccccc1C2=O
T/C (dose: 16.0 mg/kg/injection, schedule: Q01DX009 (ip), vehicle: acid diluted with saline): 112 % of control
T/C (dose: 32.0 mg/kg/injection, schedule: Q01DX009 (ip), vehicle: acid diluted with saline): 99 % of control

O=C(Nc1ccc(C(=O)Nc2cc(S(=O)(=O)O)cc3cc(S(=O)(=O)O)cc(O)c23)cc1)c1ccccc1
T/C [4]: 94 % of control
T/C [5]: 89 % of control
T/C [6]: 89 % of control

CC(=O)NCCCCCCNC(C)=O
T/C (dose: 100.0 mg/kg/injection, schedule: Q01DX009 (ip), vehicle: saline): 101 % of control
T/C (dose: 200.0 mg/kg/injection, schedule: Q01DX009 (ip), vehicle: saline): 105 % of control
T/C (dose: 400.0 mg/kg/injection, schedule: Q01DX009 (ip), vehicle: saline): 87 % of control
T/C (dose: 800.0 mg/kg/injection, schedule: Q01DX009 (ip), vehicle: saline): 105 % of control

O=C(Nc1ccc2c(c1)Cc1cc(Br)ccc1-2)C(F)(F)F
T/C (dose: 25.0 mg/kg/injection, schedule: Q04DX003 (ip), vehicle: saline with Tween-80): 103 % of control
T/C (dose: 50.0 mg/kg/injection, schedule: Q04DX003 (ip), vehicle: saline with Tween-80): 109 % of control
T/C (dose: 100.0 mg/kg/injection, schedule: Q04DX003 (ip), vehicle: saline with Tween-80): 95 % of control and 96 % of control
T/C (dose: 400.0 mg/kg/injection, schedule: Q04DX003 (ip), vehicle: saline with Tween-80): 86 % of control

CCCCCCCCCCCC[N+](C)(C)C (tested in a mixture with another compound)
T/C (dose: 3.5 mg/kg/injection, schedule: Q01DX009 (ip), vehicle: saline): 98 % of control
T/C (dose: 7.0 mg/kg/injection, schedule: Q01DX009 (ip), vehicle: saline): 86 % of control
T/C (dose: 14.0 mg/kg/injection, schedule: Q01DX009 (ip), vehicle: saline): 90 % of control

Nc1ccc(-c2ccc(N)c([N+](=O)[O-])c2)cc1[N+](=O)[O-]
T/C [4]: 100 % of control
T/C [5]: 97 % of control
T/C [6]: 105 % of control

[Cl][Pt+2][Cl].[NH-]CC(=O)O.[NH-]CC(=O)O
T/C (dose: 25.0 mg/kg/injection, schedule: Q01DX009 (ip), vehicle: saline with Tween-80): 97 % of control
T/C (dose: 50.0 mg/kg/injection, schedule: Q01DX009 (ip), vehicle: saline with Tween-80): 92 % of control

O=C(O)C(O)C(=O)O.[NH2-].[NH2-].[Pt+2]
T/C (dose: 1.0 mg/kg/injection, schedule: Q01DX009 (ip), vehicle: other): 104 % of control
T/C (dose: 8.0 mg/kg/injection, schedule: Q01DX009 (ip), vehicle: other): 156 % of control and 175 % of control and 192 % of control
T/C (dose: 16.0 mg/kg/injection, schedule: Q01DX009 (ip), vehicle: other): 197 % of control and 288 % of control and 300 % of control
T/C (dose: 32.0 mg/kg/injection, schedule: Q01DX009 (ip), vehicle: other): 281 % of control

From PubChem BioAssay AID192 (DTP/NCI, 2004)
